Results: ChEMBL document CHEMBL5727461, “Heterocyclic compounds and uses thereof” (2019)

Biological target: Bromodomain-containing protein 4 (Homo sapiens, UniProt O60885)
Test: Alphascreen Binding Assay: Binding of compounds of formula (I) with bromodomain 2, 3 4 was assessed using Alphascreen binding assay. The inhibition of the interaction between bromodomain and its acetylated target protein (Filippakopoulos P et al. 2012) was measured quantitatively using recombinant BRD proteins, an acetylated Histone 4 peptide and AlphaScreen technology. In absence of inhibition the BRD protein bound to AlphaScreen nickel chelate acceptor beads can interact with the acetylated Histone 4 peptide which is immobilized by the AlphaScreen Streptavidin coated beads. This interaction brings donor and acceptor beads in proximity. The close proximity allows the singlet oxygen produced by laser excitation of the donor beads to reach the acceptor beads and generate a luminescence signal. BRD inhibitors result in a decrease in the proximity signal through an inhibition of the BRD-acetylated peptide interaction.Recombinant human bromodomains containing the N-terminal bromodomain (BRD2-BD1 (71-194), BRD3-BD1 (24-144) and BRD4-BD1 (44-164)) or dual bromodomains (BRD4-BD12 (1-477), BRD4-BD12 (1-472)) were prepared and purified as described in protein expression and purification session.

Work on `Cc1noc(C)c1-c1cnc2c(c1)c(CC1CCN(S(=O)(=O)c3ccccc3)CC1)cn2C` yielded an IC50 of less than 1 µM.
